Read-outs that look alike come from different tables or passages of the source.
Assays:
[1] = PK and biodistribution in BALB/c mice; type: in vivo; details: for half-life: 50 mg/kg
Description: Figure 8 PK and biodistribution of BA103 in BALB/c mice at the single dose of 50 mg/kg i.p. (A) Plasmatic distribution and PK parameters. Concentration levels ± SD of BA103 in (B) kidneys, (C) liver, and (D) brain. TEXT PRINTED IN THE PICTURE: (A) no label printed: t1/2 (min): 299.6; Cmax (μg/ml): 18.2; AUC 0-t (μg/ml*min): 1817.6; AUC 0-inf_obs (μg/ml*min): 1850.7; Vz/F_obs ((mg/kg)/(μg/ml)): 11.7; Cl/F_obs ((mg/kg)/(μg/ml)/min): 0.1 DOUBTS OF THE COPYIST ABOUT THIS PICTURE: Panel A table: the picture prints no substance label / Panel A table, Vz/F_obs and Cl/F_obs: the underscore may be hidden by the table line (could be 'Vz/F obs', 'Cl/F obs')
Thus, preliminary PK and biodistribution studies were performed on two groups of BALB/c mice (CTRL and BA103-treated) at the single intraperitoneal (i.p.) dose of 50 mg/kg. BA103 was slowly eliminated from plasma, with a half time (t1/2) of about 5 h. […] Even if the PK analysis was conducted in healthy mice, with an intact BBB, the data are of great importance, since the majority of drugs are unable to reach the tumor environment due to their low permeability.

U87 and U251 cells [2] = assay: Cell cycle analysis in GBM cells; type: cell-based; details: after 72 h
Description: […] At the end point, at least 5 × 10^6 cells were harvested, washed with phosphate buffer saline (PBS), and fixed overnight with 70% ethanol. Then, ethanol was removed by centrifugation, and the cells were resuspended in PBS and stained with 50 μg/mL propidium iodide (PI) at 4 °C for 30 min in the dark. Stained cells were analyzed by a Tali image-based cytometer (Life Technologies, Carlsbad, CA, USA) counting 20 fields per sample, and exported fcs raw data were elaborated by Flowing software (v. 2.5.0, by Perttu Terho, University of Turku, Finland).
To better characterize the antiproliferative effect of BA103, we performed further biological evaluation using GBM cell lines. The expression of DDX3X was evaluated in U87 and U251 cell lines by Western blot analysis in comparison with HepG2 cells, resulting in basally detectable mainly in U87 cells (Figure 6A). […] Cell cycle experiments were performed in normal conditions (CTR) and in the presence of BA103 at 1 µM and 10 µM concentrations for 48 h and 72 h. […] Thus, also according to the importance of β-catenin signaling in GBM, we analyzed whether the expression of β-catenin in U87 and U251 cells could be associated with DDX3X activity. GBM cells were treated with BA103 for 48 h, and then, β-catenin expression was evaluated by Western blot analysis and immunofluorescence analysis (Figure 7A,B, respectively). […]

DDX3X = DDX3X protein expression by Western blot in GBM cells; type: cell-based; details: 24 h of treatment
Description: Cells were incubated for 15 min in lysis buffer containing 1% triton, 0.1% SDS, 2 mmol/L CaCl2, 10 mg/mL orthovanadate, and 1× protease inhibitors cocktail (Sigma-Aldrich, St. Louis, MO, USA). Forty micrograms of proteins were electrophoresed in 12% SDS-polyacrylamide gel, and then, the gel was placed onto a Trans-Blot Turbo mini nitrocellulose transfer pack and transferred using a Trans-Blot Turbo Transfer System (Bio-Rad Laboratories, Hercules, CA, USA). The membrane was incubated with […] primary antibody and then with […] horseradish peroxidase (HRP)-conjugated secondary antibodies (Santa Cruz Biotechnology, Dallas, TX, USA). […]
(§1) To better characterize the antiproliferative effect of BA103, we performed further biological evaluation using GBM cell lines. The expression of DDX3X was evaluated in U87 and U251 cell lines by Western blot analysis in comparison with HepG2 cells, resulting in basally detectable mainly in U87 cells (Figure 6A). […] Thus, also according to the importance of β-catenin signaling in GBM, we analyzed whether the expression of β-catenin in U87 and U251 cells could be associated with DDX3X activity. GBM cells were treated with BA103 for 48 h, and then, β-catenin expression was evaluated by Western blot analysis and immunofluorescence analysis (Figure 7A,B, respectively). […]

U87 and U251 cells [3] = assay: Transwell migration assay in GBM cells; type: cell-based; details: 48 h of incubation, vs untreated cells
Description: Exponential growing cells were treated with the inhibitor or vehicle for 48 h and then trypsinized, washed twice with PBS, rinsed in complete medium, incubated at 37 °C for 30 min to reconstitute the membrane structures, washed again for FCS removal, and then added to the upper compartment of collagen-coated (PTFE) Transwell insert (Corning Inc., Corning, NY, USA). Cells were allowed to migrate through coated filters for 6 h. The cells attached on the lower membrane surfaces were stained with 0.1% crystal violet w/v in 0.1 mol/L borate, pH 9.0, and 2% ethanol v/v for 20 min at room temperature. Cells were counted at 400× magnification in standard optical microscopy, and the average number of cells per field in 5 random fields was recorded. Triplicate filters were used, and the experiments were repeated at least two times.
as §1, with “activity.” for “activity. GBM cells were treated with BA103 for 48 h, and then, β-catenin expression was evaluated by Western blot analysis and immunofluorescence analysis (Figure 7A,B, respectively).”

[4] = BALB/c, mouse, ip, plasma, single dose 50 mg/kg i.p.

AUC(0-t) [1, 4]: 30300 ng·h/mL
Cmax [1, 4]: 18200 ng/mL
AUC(0-inf) ([1]; BALB/c, mouse, ip, plasma, single dose 50 mg/kg i.p., read-out: AUC 0-inf_obs (converted)): 30800 ng·h/mL
half-life ([1]; BALB/c, mouse, plasma, ip, plasma, single dose 50 mg/kg i.p., read-out: t1/2): 4.99 h
half-life ([1]; BALB/c, mouse, plasma, ip, single dose 50 mg/kg i.p., read-out: half time (t1/2) of elimination from plasma (converted)): ~5 h
CL/F ([1]; BALB/c, mouse, plasma, ip, single dose 50 mg/kg i.p.): 100 mL/min/kg
Vd/F ([1]; BALB/c, mouse, plasma, ip, single dose 50 mg/kg i.p., read-out: Vz/F_obs): 11.7 L/kg
brain distribution / blood–brain barrier crossing ([1]; healthy mice, 50 mg/kg i.p.): ability to cross the blood–brain barrier
Compound: CCCCc1cn(-c2ccc(NC(=O)Nc3ccccc3C(F)(F)F)cc2)nn1 [BA103, 1-(4-(4-Butyl-1H-1,2,3-triazol-1-yl)phenyl)-3-(2-(trifluoromethyl)phenyl)urea]
cell cycle distribution (U87 and U251 cells [2]): significant accumulation of cells in the G0/G1 phase
expression of DDX3X (DDX3X): reduction in the expression of DDX3X
migration through collagen-coated Transwell filters (U87 and U251 cells [3]): reduced ability to migrate

Reference: article PMC8582824, “Targeting DDX3X Helicase Activity with BA103 Shows Promising Therapeutic Effects in Preclinical Glioblastoma Models” (Cancers, 2021)
